Here are results for one molecule from PMC10726920 (Cancer Medicine, 2023).

SMILES strings stand for the structures. “And” between values parts separate entries of the source, which are not always exact repeats. Equal values may be shown once.

One data set has as its system BCR‐ABL‐positive ALL. Details: method as in PMID 23090679. The conditions noted are these: cited from earlier work.
Data set [1] deals with patients with advanced multiple myeloma. On the set-up: method as in PMID 26800393. As to conditions: orally daily; cited from earlier work.
The test system of data set [2] is relapsed/refractory acute lymphoblastic leukemia. Put plainly: Response (modified IWG criteria) and overall survival, Phase II study NCI-9775. The class given is in vivo, human. As for the experimental part: Evaluable patients for response include all patients who had measurable disease present at baseline, began treatment, and had their disease re‐evaluated. Response was assessed by bone marrow aspirates and biopsies performed every 2 months (mandated at the end of Cycle 2, Cycle 4, and Cycle 6). The best responses were captured as overall responses at any time point. Response was evaluated based on modified response criteria by the International Working Group (IWG) recommendations for acute myeloid leukemia (Table S1).[33]
This was a phase II trial designed using a Simon design with an interim analysis to evaluate efficacy. Efficacy (success) was defined as a complete response (CR or CR incomplete (i)). All patients meeting the eligibility criteria who signed a consent form and began treatment were deemed evaluable for toxicity. […] Thus, this regimen was to be considered ineffective if the success rate was 10% or less (null hypothesis), while the smallest success rate that would warrant subsequent studies was 30% (i.e., alternate research hypothesis). With a maximum of 26 evaluable patients, this trial had 85% power to detect a CR/CRi rate of 30% or greater (vs. 10% or less) with a one‐sided Type I error of 0.09. This trial was designed with a futility analysis after enrollment of 11 patients; if there were one or fewer successes observed in these first 11 patients, the regimen would be considered ineffective, and the study terminated. If two or more successes were observed, the enrollment would continue to a total of 26 evaluable patients. In the final analysis, if five or more of these 26 evaluable patients had achieved a CR or CRi, this would be considered sufficient evidence of promising activity in this patient population. Otherwise, if four or fewer CR/CRi events were observed, this regimen would not warrant further evaluation in this population.
The primary endpoint was the proportion of successes, which was estimated by the number of successes divided by the total number of evaluable patients. Secondary endpoints of duration of response (CR or CRi) and overall survival (OS) were evaluated using Kaplan–Meier techniques; the frequency of proceeding to allogeneic stem cell transplant after achieving response and adverse events (AEs), as evaluated using reported the NCI Common Terminology Criteria for Adverse Events (CTCAE) version 4.0, were presented using descriptive statistics.

Data set [3] is described as follows: Pearson correlation of sapanisertib clearance with toxicity and group variables. As to conditions: p > 0.05. Format: in vivo, human. As for the experimental part: Blood samples were obtained on Days 1, 2, and 8 of Cycle 1. […] plasma concentrations were measured using liquid chromatography‐mass spectroscopy. Plasma concentration‐time data were analyzed by standard methods using WinNonlin. Pearson's correlation coefficient (r) was used to assess correlation of group variables. Statistical significance was defined as p < 0.05. Additional details are contained in the Supplementary Method: Data S1.
Statistical significance was defined as P<0.05.

In data set [4] the test system is phospho-4EBP1 (direct mTORC1 substrate) in Jurkat ALL cell line. Briefly: Immunoblotting of Jurkat cells treated 24 h with sapanisertib. Format: cell-based, human. The text has this:
(§1) FIGURE 2 Effect of MLN0128 concentrations on mTOR‐associated phosphorylation in vitro, ex vivo, and in the context of the present trial. […] (C) Samples harvested from the indicated patients prior to treatment (lanes 1, 4, 6, 8, and 10), on Day 8 prior to therapy (lanes 2, 5, 7, 9, and 11), or at the time of removal from study after 6 weeks (lane 3) were subjected to SDS‐PAGE and blotting for the indicated antigens. Jurkat cells (lane 12) were included in the blot because they were known to be positive for all analytes.[29] The housekeeping protein nucleolin (NCL) served as a loading control.
After samples were dialyzed sequentially into 4 M urea and 0.1% (w/v) SDS, lyophilized and reconstituted in SDS-sample buffer consisting of 4 M urea, 2% (w/v) SDS, […] (pH 6.8 at 4 °C), 10 mM EDTA, and 1% (w/v/) 2-mercaptoethanol, aliquots containing […] of total cellular protein were subjected to SDS-PAGE on gels containing 5-20% polyacrylamide gradients, transferred to nitrocellulose, and probed with antibodies as previously described ^34, 35. […]
On the technique in general: A western blot detects proteins with antibodies after separation by electrophoresis.

In data set [5] the test system is phospho-4EBP1 (direct mTORC1 substrate) in ALL sample. Briefly: Immunoblotting of pretreatment ALL specimen treated ex vivo 48 h with sapanisertib. As to conditions: 5 μM Q‐VD‐OPh. The class given is cell-based, human.
From the text: as §1
Cells were isolated from bone marrow or blood samples using Histopaque-1077 (Millipore-Sigma, St. Louis, MO) step gradients. […] Cells for ex vivo drug exposure were resuspended at a concentration of 1 x 10^6 cells/ml in RPMI 1640 medium containing 10% (v/v) heat-inactivated fetal bovine serum, 50 U/ml penicillin G, 50 µg/ml streptomycin, and 1 mM glutamine. […]

Data set [6] has as its system patients with advanced solid malignancies. As to conditions: original drug formulation, daily dosing; cited from earlier work.
In data set [7] the test system is human ALL lines and clinical ALL samples. On the set-up: method as in PMID 26917778. As to conditions: cited from earlier work.

Regarding `CC(C)n1nc(-c2ccc3oc(N)nc3c2)c2c(N)ncnc21` [sapanisertib], the “growth of syngeneic mouse model of BCR‐ABL‐positive ALL” value with BCR‐ABL‐positive ALL is “inhibited growth”. In data set [1], the MTD is recorded as 6 mg. Also, the “CR or CRi” value in data set [2] (3 mg daily 21 of 28 days) is “No patient”. For the same molecule, the Median survival in data set [2] (51.0‐NA 95% CI) is on record as 62 days. In data set [2] (in vivo), the “best response stable disease, patients” value was 2 patients and 3 patients; the “best response stable disease, percent of patients” value was 12.5% and 19%; the “disease progression, patients” value worked out at 6 patients; the “disease progression, percent of patients” value worked out at 38%. For the same molecule, in data set [2] (in vivo), the “not evaluable because of early discontinuation, patients” value stood at 7 patients and the “not evaluable because of early discontinuation, percent” value was determined as 44%. In addition, the “correlation between systemic clearance and sex, age, or total body weight” value in data set [3] is “no significant correlation”. Besides, the “concentration diminishing phosphorylation of 4EBP1 without change in total 4EBP1” value in data set [4] lay within 62.5 to 200 nM. In data set [5], the “concentration diminishing phosphorylation of 4EBP1 without change in total 4EBP1” value was in the range of 62.5 to 200 nM. Also, the “maximum tolerated dose (MTD)” value in data set [6] is 6 mg/day. In data set [7], the “cytotoxic effects compared with rapamycin” value was “greater cytotoxic effects than rapamycin”.
